Reference: PubChem BioAssay AID463229 (Broad Institute, 2010)
“And” between values parts separate entries of the source, which are not always exact repeats. Identical values can stand only once. The source made the active and inactive calls.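 How the source made its calls: active means compounds raising the signal whose fitted half-maximal concentration is at or below their top tested dose (cut at about 25 µM in these data); inconclusive means flat fit at 30 to 70% activity, or a poor fit; inactive means the rest.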

What follows are compounds tested on INS-1E rat beta cells, no cytokines, CellTiter-Glo ATP, 48 h (assay: cytokine-free beta-cell viability effect – INS-1E rat cells, ATP luminescence, cherry pick, counter-screen for beta-cell apoptosis protection project, dose response (AID 463229)).

Compound	AC50
Cc1ccc(N(CC(=O)Nc2cc(C)cc(C)c2)S(=O)(=O)c2c(C)noc2C)cc1	14.5 µM
CCN(CC)CCNC(=O)c1ccc(NC(=O)c2cn(-c3ccccc3)nc2-c2cccs2)cc1	15.7 µM
CSc1ccccc1OCc1cc(C(=O)N2CCc3c(Cl)cccc3C2)no1	6.99 µM
O=C(CN1CCCc2ccccc21)N/N=C/c1ccccc1O	15 µM
CCCCNc1c(-c2ccc(SC3CCCCC3)cc2)nc2ccccn12	5.31 µM
Nc1c(C(=O)Nc2ccc(S(=O)(=O)N3CCCC3)cc2)sc2nc3cc4c(cc3cc12)CCC4	4.63 µM
O=C1C=C(c2ccc(F)cc2OCc2ccccc2)C[C@@H](c2ccc(Cl)cc2)C1	5.46 µM
CC(C)(C)c1cnnn1-c1ccc(/C=N/Nc2ccc([N+](=O)[O-])cc2)cc1	7.77 µM
OC(c1cc(-c2ccc(C(F)(F)F)cc2)nc(C(F)(F)F)c1)C1CCCCN1 (configuration not stated)	6.81 µM
O=C1N/C(=N\N=C\c2cccnc2)SC1Cc1ccc(SC(F)F)cc1 (configuration not stated)	9.68 µM
COc1cc([N+](=O)[O-])cc(/C=N/NC(=O)c2cc(-c3ccccc3)nc3ccccc23)c1O	9.5 µM
COc1ccc(/C=C2\CN(Cc3ccccc3)C/C(=C\c3ccc(OC)c(O)c3)C2=O)cc1O	4.75 µM
O=C(NCCc1cn2ccccc2n1)c1cc(COc2ccc3ncccc3c2)on1	8.04 µM
O=C(CN1CCOCC1)N/N=C/c1c(O)ccc2ccccc12	16.1 µM
FC(F)(F)c1nc2ccccc2n2c(-c3ccc(Cl)cc3)nnc12	7.14 µM
CCCCCCCCCn1ccc(=N)cc1	0.553 µM
COc1ccc(CNCCC(c2ccc(OC(C)C)cc2)c2ccccc2OC)cc1 (configuration not stated)	12.2 µM
O=C(Nc1cccc(S(=O)(=O)Nc2ccc(Cl)cc2)c1)c1ccc(Cl)nc1	4.6 µM
COc1ccc(OC)c2[nH]c(C(=O)N/N=C/c3ccccc3O)cc12	7.58 µM
Cc1cc(Nc2cccc(F)c2)nc(NCc2ccccc2)n1	5.15 µM
CCC(=O)NC(c1cc(Cl)c2cccnc2c1O)C1CC1 (configuration not stated)	6.34 µM
Cc1cc2c(NCCc3ccccc3)ncnc2s1	2.95 µM

Compound	AC50
Cc1ccc(-c2nn(-c3ccccc3)cc2/C=C/C(=O)Nc2cccc(S(N)(=O)=O)c2)cc1	2.75 µM
O=C(Nc1ccc(-c2csc(Nc3cccc(C(F)(F)F)c3)n2)cc1)c1cc([N+](=O)[O-])cc(C(F)(F)F)c1	7.63 µM
NC1=NC[C@H](Cc2ccccc2)N1CCCCC1CCCCC1	6.91 µM
COc1cc(NC(C)CCCN)c2ncccc2c1 (configuration not stated)	13.8 µM
CCc1nnc(NC(=O)c2cccc(C(=O)Nc3nnc(CC)s3)n2)s1	2.98 µM
O=C(Nc1ccc(N2CCN(Cc3ccccc3Cl)CC2)cc1)c1cccnc1	5.98 µM
COc1ccc(-c2c[n+]3c(n2-c2ccccc2)CCCCC3)cc1	2.35 µM
COC1=C(Nc2ccccc2OC)C(=O)c2ccccc2C1=O	> 26 µM (inactive)
Cc1ccc(-c2sc(-c3ccccc3)nc2CC(=O)Nc2ccccc2F)cc1	2.06 µM
O=c1c2ccccc2nc(N/N=C/c2c(O)ccc3ccccc23)n1O	3.65 µM
COC(=O)c1cc(=O)n(CCc2ccccc2F)c(=Nc2ccc(F)c(Cl)c2)s1	11.1 µM
O=C(CCC(=O)Nc1ccc(Br)cc1)N/N=C/c1ccccc1O	14.6 µM
Clc1cccc(N=C2NN=C(c3ccc4c(c3)OCCO4)CS2)c1	1.76 µM
CNC(=O)c1sc(N2N=C3/C(=C/c4ccccc4)CCCC3C2c2ccccc2)nc1C (configuration not stated)	5.11 µM
C/C(=N\NC(=O)c1cc(-c2cccnc2)nc2ccccc12)c1ccc(O)cc1O	2.45 µM
C=C1C(O)[C@@H]2O[C@]3(CC[C@H](/C=C/C(C)[C@@H]4CC(C)=CC5(O[C@H](C[C@@](C)(O)CO)CCC5O)O4)O3)CC[C@H]2O[C@@H]1C(O)CC(C)[C@H]1OC2(CCCCO2)CCC1C (some centres not stated)	10.7 µM
Cc1nc2ccccc2n1Cc1ccc(Br)cc1	5.63 µM
CCCCc1ccc(N/C(N)=N/c2nc(C)cc(C)n2)cc1	5.12 µM
CCOC(=O)c1[nH]cnc1N=Nc1c(O)ccc2ccccc12	2.28 µM
O=c1[nH]c(=O)n(-c2ccc(F)cc2)c2c1C(C(F)(F)F)(C(F)(F)F)N=C(c1ccc(F)cc1)N2	6.05 µM
c1ccc(-c2nnc(-c3ccccn3)nc2NC2CCCCC2)cc1	3.52 µM
c1ccc2c(c1)ncn2CCCOc1ccc2c(c1)CCC2	7.74 µM

Compound	AC50
Cc1cccc(NC(=O)c2nc(S(=O)(=O)Cc3ccccc3)ncc2Cl)c1	15.8 µM
C=C1CCc2c([nH]c3ccc(OCC(C)C)cc23)C1=O	7.5 µM
CCCCS(=O)(=O)/C=C\C=C/S(=O)(=O)CCCC	5.48 µM
C/C(=N\N1C(=O)c2ccccc2NC1c1ccco1)c1ccccc1O (configuration not stated)	12.5 µM
Cc1sc2cc3c(c(C(=O)c4ccccc4)[n+]2c1C)-c1cccc2cccc-3c12	2.27 µM
Cc1[nH]c2c(ccc3ccccc32)c1C1C(CCN)C1(C)C (configuration not stated)	14.6 µM
O=C(N/N=C\c1cc(Cl)ccc1O)c1ccc(S(=O)(=O)N2CCCCC2)cc1	6.44 µM
CC1CCc2c(sc3nc(C4CC4)nc(N4CCN(C(=O)c5ccco5)CC4)c23)C1 (configuration not stated)	3.01 µM
COc1cc2c(cc1OC)-c1c(OC)c(OC)c(OC)c3ccnc(c13)C2=O	6.65 µM
Cc1ccccc1NC(=S)N/N=C/c1ccc(O)cc1O	14.6 µM
O=C(N/N=C/c1cc(Cl)ccc1O)c1cccnc1	8.72 µM
CC(=O)c1ccc(NC(=S)NCc2cccnc2)cc1	5.53 µM
O=[N+]([O-])c1cccc(-c2cn3nc(-c4ccccc4)c(-c4ccccc4)nc3n2)c1	10 µM
O=C(CCSc1nc2ccccc2s1)N/N=C/c1c(O)ccc2ccccc12	5.5 µM
Cc1ccc2c(c1)c(/C=C/c1cc[n+](C)cc1)c(C)n2C	3.97 µM
O=C(c1cc2sccc2n1Cc1ccccc1)N1CCN(c2nc3ccccc3s2)CC1	5.51 µM
CC[N+](C)(CC)CCC(c1ccccc1)C1CCCCC1 (configuration not stated)	> 26 µM (inactive)
O=C(N/N=C/c1ccc(O)cc1O)/C(=C/c1ccccc1)CCO	6.54 µM
Cc1ccccc1N1CCN(Cc2c[nH]c3ccccc23)CC1	7.37 µM
Cc1cc(N2CCCC2=O)cc(C)c1S(=O)(=O)NCCOc1ccc(C(C)(C)C)cc1	3 µM
CCOC(=O)COc1ccc2ccccc2c1/C=C/[N+](=O)[O-]	10.6 µM
CCCCCc1ccc(OCCCC[n+]2ccccc2)c(CCCCC)c1	3.3 µM

Compound	AC50
COc1cccc(/C=N/NC(=O)c2[nH]nc3c2CCc2ccccc2-3)c1O	4.25 µM
COC(=O)C1CCN(C(=O)c2cc(-c3ccc(Cl)s3)nc3ccccc23)CC1	3.24 µM
Cc1cc([N+](=O)[O-])c2ccccc2[n+]1[O-]	0.454 µM
O=C(Nc1cc(-c2ccccc2)nn1C1CCCCC1)c1ccc(Cl)cc1	3.67 µM
Cc1ccc(-c2cc(-c3ccc(C)cc3)[n+](-c3ccc(C(=O)[O-])cc3)c(-c3ccc(C)cc3)c2)cc1	7.24 µM
Cc1cc(OCc2nc(-c3ccc(NC(=O)c4cccnc4)cc3)no2)ccc1Cl	1.16 µM
CCCCn1c(/C=N/Nc2nc3ccccc3[nH]2)nc2ccccc21	14.1 µM
Cc1cc(N/N=C/c2c(O)ccc3ccccc23)nc(-c2ccccc2O)n1	11.7 µM
COc1cc2c(cc1OC)[C@@H]1C(=O)c3ccc4c(c3O[C@@H]1CO2)C[C@H](C(C)C)O4	< 0.195 µM
O=C(Nc1ccccc1Cl)/C(Cl)=C(\Cl)S(=O)c1ccccc1 (configuration not stated)	2.9 µM
NS(=O)(=O)c1ccc(N/N=C/c2cn(-c3ccccc3)nc2-c2cccs2)c([N+](=O)[O-])c1	5.61 µM
O=C(COC(=O)c1cn(-c2ccccc2)nc1-c1ccccc1)c1cccc([N+](=O)[O-])c1	2.8 µM
CCOC(=O)C1=C(c2ccc(OC)cc2)C(=O)c2ccccc2C1=O	3.83 µM
CCCOc1cc(NCc2ccccc2)c2ncn(C(C)C)c2c1	7.28 µM
Cc1ccc(NC(=O)c2cc(S(=O)(=O)NCCC3=CCCCC3)ccc2F)cc1	7.48 µM
COc1ccccc1-n1c(-c2ccccc2)c[n+]2c1CCc1ccccc1-2	2.16 µM and 3.41 µM
O=C(COc1ccc(Br)cc1)N1CCN(Cc2c[nH]c3ccccc23)CC1	3 µM
COc1ccc(Nc2nc(N3CCCCC3)c3ccccc3n2)cc1	12 µM
Cc1ccc(C(=O)OCn2ncc(Cl)c(Cl)c2=O)cc1	7.77 µM
CCN(CC)c1ccc(/C=N/NC(=O)c2ccc3nc[nH]c3c2)c(O)c1	2.7 µM
COc1ccc2cc(C(=O)N/N=C/c3sc4ccccc4c3O)ccc2c1	7.3 µM
Cc1ccc2[nH]c3c(N4CCc5ccccc5C4)ncnc3c2c1	2.58 µM

Compound	AC50
COCCNc1nc2c(c(=O)n(C)c(=O)n2C)n1Cc1cccc(C(F)(F)F)c1	12.1 µM
CC[C@]1(c2ccccc2OC)ON(c2ccccc2C(F)(F)F)C1=O	4.55 µM
CCCCCCn1c(=O)c(C(=O)Nc2ncccc2C)c(O)c2ccccc21	5.5 µM
Cc1nnc(N/N=C/c2cc([N+](=O)[O-])c(N3CCC(C)CC3)cc2N2CCC(C)CC2)n1N	2.54 µM
Cc1ccc(-c2nn(-c3ccccc3)cc2/C=N/NC(=O)c2ccc3c(c2)OCO3)cc1	5.63 µM
O=C(NC(c1ccc(Cl)cc1)c1cc(Cl)c2cccnc2c1O)c1cccnc1 (configuration not stated)	6.6 µM
COc1cc(-c2nc3ccc(C)cn3c2NCc2ccccc2)ccc1-c1cccc(Cl)c1	4.66 µM
O=C(N/N=C/c1cc([N+](=O)[O-])ccc1O)c1cccc2ccccc12	9.87 µM
CCN1CCN(c2ccc(S(=O)(=O)N3CCCCC3)cc2NC(=O)c2ccc([N+](=O)[O-])o2)CC1	8.1 µM
Cc1cc(Cl)c(S(=O)(=O)N2CCN(c3ccc(F)cc3)CC2)cc1OCC(=O)NC1CCCCC1	7.07 µM
CCCN(CCC)C(=O)c1cc([N+](=O)[O-])cc2c1-c1ccc([N+](=O)[O-])cc1C2=C(C#N)C#N	14.2 µM
Oc1[nH]c(N=C2N=c3ccccc3=N2)c2ccccc12	3.44 µM
CC(C)CN(C(=O)COC(=O)C12CC3CC(CC(Cl)(C3)C1)C2)c1c(N)n(Cc2ccccc2)c(=O)[nH]c1=O	6.97 µM
CN1CCN(C(c2ccc(C(F)(F)F)cc2)c2ccc3cccnc3c2O)CC1 (configuration not stated)	4.56 µM
CC(=O)c1cccc(NS(=O)(=O)c2ccc(N/C=C\C(=O)c3ccc(F)cc3)cc2)c1	4.97 µM
FC(F)(F)c1cnc(NNC(=S)Nc2ccccc2Cl)c(Cl)c1	7.03 µM
Cc1cc(C)c(S(=O)(=O)/N=C2/C=C(Sc3ncn[nH]3)C(=O)c3ccccc32)cc1C	7.58 µM
CCn1c(/C=C/c2ccc([N+](=O)[O-])o2)nc2ccccc2c1=O	4.08 µM
c1ccc(C(c2ccccc2)N2CCN(c3nc4ccccc4n4cnnc34)CC2)cc1	4.73 µM
